Broadly, the Ki is a measure of affinity in units of concentration, obtained from inhibition or displacement. A high value points to weaker binding. The term inhibition denotes the drop in the measured response relative to a control, in per cent. A high value points to strong suppression.

Test [1] concerns the target T1, D(2) dopamine receptor (Homo sapiens, UniProt P14416). In words: Displacement of [3H]-methyl-spiperone from human dopamine D2L receptor expressed in HEK293 cell membranes after 1 hr by radioligand binding assay.
Test [2] addresses 5-hydroxytryptamine receptor 6 (Homo sapiens, UniProt P50406). In words: Displacement of [3H]-LSD from human 5-HT6R expressed in CHO cell membranes by radioligand binding assay. Background: Loss of bound radioactivity is the signal in a displacement assay; it reports binding, not function.
In the next test the target is D(3) dopamine receptor (Homo sapiens, UniProt P35462). The test can be described thus: Displacement of [3H]-methyl-spiperone from human dopamine D3 receptor expressed in CHO cell membranes after 1 hr by liquid scintillation counting.
Chain of D(3) dopamine receptor (P35462 whole entry): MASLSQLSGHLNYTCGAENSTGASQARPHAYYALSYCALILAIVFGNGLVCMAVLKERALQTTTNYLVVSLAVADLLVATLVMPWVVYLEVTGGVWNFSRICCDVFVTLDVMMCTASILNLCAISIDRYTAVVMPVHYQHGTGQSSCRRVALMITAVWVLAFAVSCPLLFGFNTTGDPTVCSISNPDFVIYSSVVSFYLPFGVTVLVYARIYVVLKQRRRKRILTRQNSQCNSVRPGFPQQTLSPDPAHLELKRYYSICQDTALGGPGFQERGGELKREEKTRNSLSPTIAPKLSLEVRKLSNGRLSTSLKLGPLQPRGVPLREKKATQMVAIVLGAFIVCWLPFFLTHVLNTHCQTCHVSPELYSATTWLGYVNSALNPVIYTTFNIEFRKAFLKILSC
For test [3], the target named is T1, D(2) dopamine receptor. The test can be described thus: Displacement of [3H]-methyl-spiperone from human dopamine D2L receptor expressed in HEK293 cell membranes at […] after 1 hr by radioligand binding assay.

Chain of 5-hydroxytryptamine receptor 6 (P50406 whole entry): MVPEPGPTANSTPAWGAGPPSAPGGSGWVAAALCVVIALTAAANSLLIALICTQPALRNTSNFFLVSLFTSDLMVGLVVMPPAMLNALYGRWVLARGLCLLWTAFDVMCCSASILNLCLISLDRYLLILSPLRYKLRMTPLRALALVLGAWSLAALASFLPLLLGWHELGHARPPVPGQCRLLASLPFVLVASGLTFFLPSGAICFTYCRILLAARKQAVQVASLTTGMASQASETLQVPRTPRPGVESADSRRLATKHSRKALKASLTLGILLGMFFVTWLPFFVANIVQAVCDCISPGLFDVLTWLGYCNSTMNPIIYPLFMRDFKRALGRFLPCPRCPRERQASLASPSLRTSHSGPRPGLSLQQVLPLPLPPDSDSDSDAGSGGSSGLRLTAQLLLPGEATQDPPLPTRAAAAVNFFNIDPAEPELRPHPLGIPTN
T1 sequence (P14416 whole entry): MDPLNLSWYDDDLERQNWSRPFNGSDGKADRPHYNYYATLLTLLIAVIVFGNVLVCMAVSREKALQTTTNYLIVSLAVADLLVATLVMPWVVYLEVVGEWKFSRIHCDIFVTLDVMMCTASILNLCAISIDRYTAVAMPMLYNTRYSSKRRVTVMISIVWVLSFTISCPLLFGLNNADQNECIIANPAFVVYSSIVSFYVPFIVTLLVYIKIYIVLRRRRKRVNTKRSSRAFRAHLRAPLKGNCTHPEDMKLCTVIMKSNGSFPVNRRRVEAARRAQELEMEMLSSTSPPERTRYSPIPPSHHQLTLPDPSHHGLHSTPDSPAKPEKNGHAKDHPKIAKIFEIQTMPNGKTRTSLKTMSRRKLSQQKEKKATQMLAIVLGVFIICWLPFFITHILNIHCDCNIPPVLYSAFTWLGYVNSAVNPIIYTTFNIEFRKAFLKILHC

`CN[C@@H]1c2ccc3c(ccn3S(=O)(=O)c3ccccc3)c2[C@@H]1CCO`: the figures for the inhibitory constant (Ki) (on D(2) dopamine receptor [1]; in test [2]; on D(3) dopamine receptor) were over 10000 nM, 25.1 nM and over 10000 nM, respectively.

For `CC(=O)Nc1ccc(CCN(C)CC2Cc3ccc4c(ccn4S(=O)(=O)c4ccccc4)c32)cc1` (centres undefined), the Ki on D(2) dopamine receptor [1] is 251 nM; in test [2], 79.4 nM; on D(3) dopamine receptor it was 501 nM.

Turning to `CNCC1Cc2ccc3c(ccn3S(=O)(=O)c3ccccc3)c21` (centres undefined), the Ki on D(2) dopamine receptor [1] was 2000 nM; in test [2] it was 1.58 nM; at D(3) dopamine receptor it was 1260 nM.

For the compound `O=S(=O)(c1ccccc1)n1ccc2cc3c(cc21)[C@H]1CCNCC[C@@H]31`, the figures for the Ki (on D(2) dopamine receptor [1]; in test [2]; at D(3) dopamine receptor) were over 10000 nM, 158 nM and 3160 nM, respectively.

For `CNCC1Cc2ccc3c(ccn3S(=O)(=O)c3cccc4ccccc34)c21` (centres undefined), the inhibitory constant (Ki) was 1000 nM on D(2) dopamine receptor [1], 1 nM in test [2] and 251 nM at D(3) dopamine receptor.

On to `CNCC1Cc2cc3ccn(S(=O)(=O)c4cccc5ccccc45)c3cc21` (centres undefined), for which the inhibition constant Ki is 2510 nM at D(2) dopamine receptor [1], 1 nM in test [2] and 794 nM at D(3) dopamine receptor.

For `O=S(=O)(c1ccccc1)n1ccc2c3c(ccc21)[C@H]1CCNCC[C@@H]31` (relative stereo), the Ki at D(2) dopamine receptor [1] is 794 nM; in test [2], 50.1 nM; on D(3) dopamine receptor, 1000 nM.

On to `CN[C@@H]1c2cc3ccn(S(=O)(=O)c4ccccc4)c3cc2[C@H]1CCO` (relative stereo), for which the inhibition constant (Ki) is 15800 nM on D(2) dopamine receptor [1], 3.98 nM in test [2] and 2000 nM at D(3) dopamine receptor.

Turning to `CN[C@H]1c2c(ccc3c2ccn3S(=O)(=O)c2ccccc2)[C@H]1CCO` (relative stereo), the Ki at D(2) dopamine receptor [1] is over 10000 nM; in test [2] it was 7.94 nM; on D(3) dopamine receptor, over 10000 nM.

Regarding `CN(C)[C@H]1c2cc3ccn(S(=O)(=O)c4ccccc4)c3cc2[C@H]1CCO` (relative stereo), the Ki is over 10000 nM at D(2) dopamine receptor [1], 39.8 nM in test [2] and 398 nM at D(3) dopamine receptor.

Take `CN(C)[C@H]1c2cc3c(ccn3S(=O)(=O)c3ccccc3)cc2[C@@H]1CCO` (relative stereo): the inhibition on D(2) dopamine receptor [3] amounted to 19%. Moreover, the Ki in test [2] was 316 nM; on D(3) dopamine receptor, 126 nM.

In turn, `CN(C)[C@@H]1c2cc3ccn(S(=O)(=O)c4ccccc4)c3cc2[C@H]1CCO` (relative stereo) gave an inhibition on D(2) dopamine receptor [3] of 22%. In addition, the Ki in test [2] is 12.6 nM; at D(3) dopamine receptor, 1260 nM.

Turning to `CN(C)[C@@H]1c2cc3c(ccn3S(=O)(=O)c3ccccc3)cc2[C@@H]1CCO` (relative stereo), the inhibition on D(2) dopamine receptor [3] is 20%. The inhibition constant (Ki) was 316 nM in test [2] and 631 nM at D(3) dopamine receptor.

`CN[C@H]1c2cc3ccn(S(=O)(=O)c4ccccc4)c3cc2[C@H]1CCO` (relative stereo) displayed an inhibition on D(2) dopamine receptor [3] of 30%. The values for the inhibition constant (Ki) (in test [2]; on D(3) dopamine receptor) were 10 nM and 1260 nM, respectively.

As to `CN[C@H]1c2cc3c(ccn3S(=O)(=O)c3ccccc3)cc2[C@@H]1CCO` (relative stereo), the Ki was 6310 nM on D(2) dopamine receptor [1], 158 nM in test [2] and 251 nM on D(3) dopamine receptor.

For `CN[C@H]1c2c(ccc3c2ccn3S(=O)(=O)c2ccccc2)[C@@H]1CCO` (relative stereo), the inhibition constant (Ki) on D(2) dopamine receptor [1] was 15800 nM; in test [2], 200 nM; on D(3) dopamine receptor, 1260 nM.

For the compound `CN[C@@H]1c2cc3c(ccn3S(=O)(=O)c3ccccc3)cc2[C@@H]1CCO` (relative stereo), the Ki is over 10000 nM at D(2) dopamine receptor [1], 126 nM in test [2] and 1000 nM on D(3) dopamine receptor.

As for `CN[C@H]1c2ccc3c(ccn3S(=O)(=O)c3ccccc3)c2[C@@H]1CCO` (relative stereo), the inhibition constant Ki at D(2) dopamine receptor [1] is over 10000 nM; in test [2], 158 nM; at D(3) dopamine receptor, 1260 nM.

The record behind these values is ChEMBL document CHEMBL3871306, “Design and synthesis of novel N-sulfonyl-2-indoles that behave as 5-HT6 receptor ligands with significant selectivity for D3 over D2 receptors” (Bioorg Med Chem, 2017).
